{
  "source": "patent US20250034201A1",
  "about": "“PRODRUGS OF GANAXOLONE” (priority 2022, published 2025)",
  "key": {"[1]": {"test": "Stability in simulated gastric fluid (SGF)", "assay_type": "in vitro ADME", "settings": "simulated gi fluid, pH 1.2", "description": "(§1) The stability of exemplary compounds in simulated gastric fluid (SGF) and simulated intestinal fluid (SIF) was tested according to the following protocol."}, "Dog plasma stability": {"test": "Dog plasma stability", "assay_type": "in vitro ADME", "experimental": "For each test compound, samples at a final concentration of 2 μg/mL were prepared in blank plasma of selected species. All samples were incubated at 37° C. on a 150-RPM orbital shaker, and an aliquot was removed at pre-determined time points (0, 15, 30, 60, and 120 minutes). Samples were precipitated with three volumes of acetonitrile containing propranolol as internal standard, and centrifuged for 10 min at 2000 g before LC/MS/MS analysis of the supernatant solutions."}, "[2]": {"test": "Rat liver microsomal stability", "assay_type": "in vitro ADME", "description": "(§2) For several compounds only human liver microsomal stability was tested. […] The microsomal assays were carried out with and without the addition of NADPH at a final concentration of 1 mM. For negative control samples, NADPH reagent was not added. […] Note that compounds undergo only Phase I metabolism in liver microsomes.\n(§3) CLint=the intrinsic hepatic clearance (uL/min/mg), where CLint is equal to 0.693/(t1/2×Cmp)"}, "in vitro [3]": {"test": "in vitro"}, "[4]": {"test": "Stability in simulated intestinal fluid (SIF)", "assay_type": "in vitro ADME", "settings": "simulated gi fluid, pH 6.8", "description": "as §1"}, "[5]": {"test": "Dog liver microsomal stability", "assay_type": "in vitro ADME", "settings": "dog, microsomes", "description": "as §2, §3\nCertain compounds were also tested in mice and dog liver microsome assays according to the protocol outlined above. […]."}, "in vitro [6]": {"test": "in vitro", "assay_type": "in vitro ADME, human", "settings": "human, microsomes", "description": "as §2"}, "[7]": {"test": "Pharmacokinetic study with Compound 224 (IV 2 mg/kg, PO 10 mg/kg)", "settings": "male, beagle, dog, plasma, analyte Compound 224, fasted male beagle dogs, mean", "description": "Analysis time points for the IV arm were 0.083, 0.25, 0.5, 1, 2, 4, 8, 12, 24, 36 and 48 hours post dose and analysis time points for the PO arm were 0.25, 0.5, 1, 2, 4, 8, 12, 24, 36 and 48 hours post dose."}},
  "data": [
    {"smiles": "CC(=O)[C@H]1CC[C@H]2[C@@H]3CC[C@H]4C[C@](C)(OC(=O)COC(=O)C(C)(C)O)CC[C@]4(C)[C@H]3CC[C@]12C", "note": "[Compound 224]", "values": [
      {"measurement": "SGF (% remain, 60 min)", "setting": "[1]; 1 h", "value": 88, "unit": "%"},
      {"measurement": "half-life", "setting": "[1]", "value": 365, "unit": "min"},
      {"measurement": "Dog plasma t90", "setting": "Dog plasma stability; dog", "value": 126, "unit": "min"},
      {"measurement": "half-life", "setting": "Dog plasma stability; dog plasma", "value": 838, "unit": "min"},
      {"measurement": "Comments: production of GNX (ganaxolone) in rat liver microsomes", "setting": "[2]; rat liver microsomes", "value": "In rat no GNX produced;"},
      {"measurement": "half-life", "setting": "[2]; rat, microsomes", "value": 9.8, "unit": "min"},
      {"measurement": "microsomal CLint", "setting": "[2]; rat, microsomes", "value": 142, "unit": "µL/min/mg"},
      {"measurement": "Rat Liver Microsomal Stability no NADPH, % remain 1 h", "setting": "[2]; rat, microsomes, 1 h", "value": 1.4, "unit": "%"},
      {"measurement": "Human plasma t90", "setting": "in vitro [3]; human", "value": 6.5, "unit": "min"},
      {"measurement": "half-life", "setting": "in vitro [3]; human, plasma", "value": 43, "unit": "min"},
      {"measurement": "Rat plasma t90", "setting": "in vitro [3]; rat", "value": 2.16, "unit": "min"},
      {"measurement": "Observations: stability / GNX production in rat plasma", "setting": "in vitro [3]; rat, plasma", "value": "GNX produced in rat"},
      {"measurement": "half-life", "setting": "in vitro [3]; rat, plasma", "value": 14.4, "unit": "min"},
      {"measurement": "SIF (% remain, 60 min)", "setting": "[4]; 1 h", "value": 60, "unit": "%"},
      {"measurement": "half-life", "setting": "[4]", "value": 98, "unit": "min"},
      {"measurement": "half-life", "setting": "[5]", "value": 7.1, "unit": "min"},
      {"measurement": "microsomal CLint", "setting": "[5]", "value": 196, "unit": "µL/min/mg"},
      {"measurement": "Dog Liver Microsomal Stability no NADPH, % remain 1 h", "setting": "[5]; 1 h", "value": 0.6, "unit": "%"},
      {"measurement": "half-life", "setting": "in vitro [6]", "value": 1.67, "unit": "min"},
      {"measurement": "microsomal CLint", "setting": "in vitro [6]", "value": 828, "unit": "µL/min/mg"},
      {"measurement": "Human Liver Microsomal Stability no NADPH, % remain 1 h", "setting": "in vitro [6]; 1 h", "value": 0.4, "unit": "%"},
      {"measurement": "Vd", "setting": "[7]; Compound 224 PK Vss (L/kg)", "value": 5.92, "unit": "L/kg"},
      {"measurement": "Vd", "setting": "[7]; Compound 224 PK Vz (L/kg)", "value": 16.1, "unit": "L/kg"}
    ]}
  ]
}
